Measured values as given in ChEMBL document CHEMBL3046832, “Synthesis of some sulfonamides, disubstituted sulfonylureas or thioureas and some structurally related variants. A class of promising antitumor agents” (2007).

Experiments:
Assay type in all cases: functional
MDA-MB-435 = assay: Cytotoxicity against Homo sapiens (human) MDA-MB-435 cells after 48 hr by SRB assay; conditions: MDA-MB-435, 48 h
M14 = assay: Cytotoxicity against Homo sapiens (human) M14 cells after 48 hr by SRB assay; conditions: M14, 48 h
LOX IMVI = assay: Cytotoxicity against Homo sapiens (human) LOXIMVI cells after 48 hr by SRB assay
U-251 = assay: Cytotoxicity against Homo sapiens (human) U251 cells after 48 hr by SRB assay; conditions: U-251, 48 h
SNB-75 = assay: Cytotoxicity against Homo sapiens (human) SNB75 cells after 48 hr by SRB assay; conditions: SNB-75, 48 h
Hs-578T = assay: Cytotoxicity against Homo sapiens (human) Hs578T cells after 48 hr by SRB assay
MCF7 [1] = assay: Cytotoxicity against Homo sapiens (human) MCF7 cells after 48 hr by SRB assay; conditions: MCF7, 48 h
MDA-MB-231 = assay: Cytotoxicity against Homo sapiens (human) MDA-MB-231 cells after 48 hr by SRB assay; conditions: MDA-MB-231, 48 h
DU-145 = assay: Cytotoxicity against Homo sapiens (human) DU145 cells after 48 hr by SRB assay; conditions: DU-145, 48 h
UO-31 = assay: Cytotoxicity against Homo sapiens (human) UO31 cells after 48 hr by SRB assay; conditions: UO-31, 48 h
CAKI-1 = assay: Cytotoxicity against Homo sapiens (human) Caki1 cells after 48 hr by SRB assay; conditions: CAKI-1, 48 h
ACHN = assay: Cytotoxicity against Homo sapiens (human) ACHN cells after 48 hr by SRB assay
786-0 = assay: Cytotoxicity against Homo sapiens (human) 786-0 cells after 48 hr by SRB assay; conditions: 786-0, 48 h
OVCAR-8 = assay: Cytotoxicity against Homo sapiens (human) OVCAR8 cells after 48 hr by SRB assay; conditions: OVCAR-8, 48 h
OVCAR-5 = assay: Cytotoxicity against Homo sapiens (human) OVCAR5 cells after 48 hr by SRB assay; conditions: OVCAR-5, 48 h
OVCAR-4 = assay: Cytotoxicity against Homo sapiens (human) OVCAR4 cells after 48 hr by SRB assay; conditions: OVCAR-4, 48 h
IGROV-1 = assay: Cytotoxicity against Homo sapiens (human) IGROV1 cells after 48 hr by SRB assay; conditions: IGROV-1, 48 h
OVCAR-3 = assay: Cytotoxicity against Homo sapiens (human) OVCAR3 cells after 48 hr by SRB assay; conditions: OVCAR-3, 48 h
UACC-62 = assay: Cytotoxicity against Homo sapiens (human) UACC62 cells after 48 hr by SRB assay; conditions: UACC-62, 48 h
UACC-257 = assay: Cytotoxicity against Homo sapiens (human) UACC257 cells after 48 hr by SRB assay; conditions: UACC-257, 48 h
SK-MEL-5 = assay: Cytotoxicity against Homo sapiens (human) SK-MEL-5 cells after 48 hr by SRB assay; conditions: SK-MEL-5, 48 h
[2] = Cytotoxicity against Homo sapiens (human) breast cancer cells after 48 hr by SRB assay; conditions: Cancer cell lines
[3] = Cytotoxicity against Homo sapiens (human) prostate cancer cells after 48 hr by SRB assay; conditions: Cancer cell lines
[4] = Cytotoxicity against Homo sapiens (human) renal cancer cells after 48 hr by SRB assay; conditions: Cancer cell lines
[5] = Cytotoxicity against Homo sapiens (human) melanoma cells after 48 hr by SRB assay; conditions: Melanoma cell
[6] = Cytotoxicity against Homo sapiens (human) CNS cancer cells after 48 hr by SRB assay; conditions: Cancer cell lines
[7] = Cytotoxicity against Homo sapiens (human) colon cancer cells after 48 hr by SRB assay; conditions: Cancer cell lines
[8] = Cytotoxicity against Homo sapiens (human) non-small cell lung cancer cells after 48 hr by SRB assay; conditions: Cancer cell lines
NCI-H460 = assay: Cytotoxicity against Homo sapiens (human) NCI-H460 cells assessed as cellular growth after 48 hr by Alamar blue assay; parameters: concentration or dose not given beside the values
[9] = Cytotoxicity against Homo sapiens (human) leukemia cells after 48 hr by SRB assay; conditions: Leukemia cell
T47D = assay: Cytotoxicity against Homo sapiens (human) T47D cells after 48 hr by SRB assay
SF-539 = assay: Cytotoxicity against Homo sapiens (human) SF539 cells after 48 hr by SRB assay; conditions: SF-539, 48 h
SF-295 = assay: Cytotoxicity against Homo sapiens (human) SF295 cells after 48 hr by SRB assay; conditions: SF-295, 48 h
SF-268 = assay: Cytotoxicity against Homo sapiens (human) SF268 cells after 48 hr by SRB assay; conditions: SF-268, 48 h
HCT-15 = assay: Cytotoxicity against Homo sapiens (human) HCT15 cells after 48 hr by SRB assay; conditions: HCT-15, 48 h
HT-29 = assay: Cytotoxicity against Homo sapiens (human) HT-29 cells after 48 hr by SRB assay; conditions: HT-29, 48 h
HCC 2998 = assay: Cytotoxicity against Homo sapiens (human) HCC2998 cells after 48 hr by SRB assay; conditions: HCC 2998, 48 h
NCI-H522 = assay: Cytotoxicity against Homo sapiens (human) NCI-H522 cells after 48 hr by SRB assay; conditions: NCI-H522, 48 h
COLO 205 = assay: Cytotoxicity against Homo sapiens (human) COLO205 cells after 48 hr by SRB assay; conditions: COLO 205, 48 h
NCI-H23 = assay: Cytotoxicity against Homo sapiens (human) NCI-H23 cells after 48 hr by SRB assay; conditions: NCI-H23, 48 h
[10] = Cytotoxicity against Homo sapiens (human) NCI-H322 cells after 48 hr by SRB assay; conditions: NCI-H322, 48 h
EKVX = assay: Cytotoxicity against Homo sapiens (human) EKVX cells after 48 hr by SRB assay
HOP-62 = assay: Cytotoxicity against Homo sapiens (human) HOP62 cells after 48 hr by SRB assay; conditions: HOP-62, 48 h
A549 = assay: Cytotoxicity against Homo sapiens (human) A549 cells after 48 hr by SRB assay; conditions: A549, 48 h
MOLT-4 = assay: Cytotoxicity against Homo sapiens (human) MOLT4 cells after 48 hr by SRB assay; conditions: MOLT-4, 48 h
CCRF-CEM = assay: Cytotoxicity against Homo sapiens (human) CCRF-CEM cells after 48 hr by SRB assay
MCF7 [11] = assay: Cytotoxicity against Homo sapiens (human) MCF7 cells assessed as cellular growth after 48 hr by Alamar blue assay; parameters: concentration or dose not given beside the values

Question: Which results are given for `O=S(=O)(NC(=S)Nc1ccccc1)c1ccc(N2N=C3c4ccccc4CC3C2c2cccs2)cc1` (stereo not given)?
Answer: GI50 (MDA-MB-435): 19.4 µM; GI50 (M14): 22.7 µM; GI50 (LOX IMVI): 24.4 µM; GI50 (U-251): 26.2 µM; GI50 (SNB-75): 71.9 µM; GI50 (Hs-578T): 20.9 µM; GI50 (MCF7 [1]): 3.1 µM; GI50 (MDA-MB-231): 24.8 µM; GI50 (DU-145): 17.8 µM; GI50 (UO-31): 51.2 µM; GI50 (CAKI-1): 18.5 µM; GI50 (ACHN): 26.4 µM; GI50 (786-0): 19.7 µM; GI50 (OVCAR-8): 39 µM; GI50 (OVCAR-5): 17.9 µM; GI50 (OVCAR-4): 69.8 µM; GI50 (IGROV-1): 65.3 µM; GI50 (OVCAR-3): 17.2 µM; GI50 (UACC-62): 18.5 µM; GI50 (UACC-257): 29.1 µM; GI50 (SK-MEL-5): 20.8 µM; GI50 [2]: 30.8 µM; TGI [2]: 57.3 µM; GI50 [3]: 20.3 µM; TGI [3]: 47.9 µM; GI50 [4]: 32.5 µM; TGI [4]: 47 µM; GI50 [5]: 32.2 µM; TGI [5]: 68.4 µM; GI50 [6]: 34 µM; TGI [6]: 77.5 µM; GI50 [7]: 25.9 µM; TGI [7]: 75.9 µM; GI50 [8]: 30.5 µM; TGI [8]: 48.4 µM; Activity (NCI-H460): <=32%; GI50 [9]: 27.4 µM; TGI [9]: 85 µM; GI50 (T47D): > 100 µM; GI50 (SF-539): 22.7 µM; GI50 (SF-295): 18.9 µM; GI50 (SF-268): 30.7 µM; GI50 (HCT-15): 22.6 µM; GI50 (HT-29): 36.2 µM; GI50 (HCC 2998): 13.9 µM; GI50 (NCI-H522): 32.8 µM; GI50 (COLO 205): 41.9 µM; GI50 (NCI-H23): 17.6 µM; GI50 [10]: 56.6 µM; GI50 (EKVX): 19.5 µM; GI50 (HOP-62): 20.3 µM; GI50 (A549): 15.7 µM; GI50 (MOLT-4): 17.5 µM; GI50 (CCRF-CEM): 30.5 µM; Activity (MCF7 [11]): <=32%
